For ten molecules, pest or weed control results are on record in US8754242B2, “Herbicides” (Syngenta Crop Protection LLC, priority 2007, dated 2014).

Assay type in all cases: in vivo
Experiment [1] concerns Alopecurus myosuroides (ALOMY). Put plainly: Test Example 1 pre-emergence herbicidal activity. To be noted: Alopecurus myosuroides, 480 h, rate 250 g/ha, evaluated 20 days later, read-out: Pre-emergence activity ALOMY (100=total damage to plant; 0=no damage to plant). The method in brief:
(§1)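 Once sown in standard soil, pots received an aqueous spray of the formulated active ingredient, either after one day or after ten days of controlled glasshouse growth. Plants then grew under optimum greenhouse conditions. Herbicidal effect was assessed visually 15 (post-emergence) or 20 (pre-emergence) days later, 100 meaning total plant damage.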

Experiment [2] has as its system Avena fatua (AVEFA). Kind of experiment: Test Example 1 pre-emergence herbicidal activity. The following applies: Avena fatua, 480 h, rate 250 g/ha, evaluated 20 days later, read-out: Pre-emergence activity AVEFA (100=total damage to plant; 0=no damage to plant). Put shortly: as §1
In experiment [3] the test system is Digitaria sanguinalis (DIGSA). Kind of experiment: Test Example 1 pre-emergence herbicidal activity. To be noted: Digitaria sanguinalis, 480 h, rate 250 g/ha, evaluated 20 days later, read-out: Pre-emergence activity DIGSA (100=total damage to plant; 0=no damage to plant). Put shortly: as §1
Experiment [4] concerns Echinochloa crus-galli (ECHCG). Kind of experiment: Test Example 1 pre-emergence herbicidal activity. To be noted: Echinochloa crus-galli, 480 h, rate 250 g/ha, evaluated 20 days later, read-out: Pre-emergence activity ECHCG (100=total damage to plant; 0=no damage to plant). The method in brief:
as §1

Experiment [5] deals with Lolium perenne (LOLPE). Put plainly: Test Example 1 pre-emergence herbicidal activity. The following applies: Lolium perenne, 480 h, rate 250 g/ha, evaluated 20 days later, read-out: Pre-emergence activity LOLPE (100=total damage to plant; 0=no damage to plant). The method in brief:
as §1

Experiment [6] has as its system Setaria faberi (SETFA). Put plainly: Test Example 1 pre-emergence herbicidal activity. To be noted: Setaria faberi, 480 h, rate 250 g/ha, evaluated 20 days later, read-out: Pre-emergence activity SETFA (100=total damage to plant; 0=no damage to plant). The method in brief: as §1
In experiment [7] the test system is Alopecurus myosuroides (ALOMY). Kind of experiment: Test Example 1 post-emergence herbicidal activity. The following applies: 360 h, rate 125 g/ha, evaluated 15 days later, read-out: Post-emergence activity ALOMY (100=total damage to plant; 0=no damage to plant). Put shortly:
as §1

The subject of experiment [8] is Avena fatua (AVEFA). Kind of experiment: Test Example 1 post-emergence herbicidal activity. The following applies: 360 h, rate 125 g/ha, evaluated 15 days later, read-out: Post-emergence activity AVEFA (100=total damage to plant; 0=no damage to plant). The method in brief:
as §1

Experiment [9] deals with Digitaria sanguinalis (DIGSA). Put plainly: Test Example 1 post-emergence herbicidal activity. To be noted: 360 h, rate 125 g/ha, evaluated 15 days later, read-out: Post-emergence activity DIGSA (100=total damage to plant; 0=no damage to plant). Put shortly:
as §1

The test system of experiment [10] is Echinochloa crus-galli (ECHCG). Kind of experiment: Test Example 1 post-emergence herbicidal activity. To be noted: 360 h, rate 125 g/ha, evaluated 15 days later, read-out: Post-emergence activity ECHCG (100=total damage to plant; 0=no damage to plant). The method in brief: as §1
Experiment [11] has as its system Lolium perenne (LOLPE). Kind of experiment: Test Example 1 post-emergence herbicidal activity. The following applies: 360 h, rate 125 g/ha, evaluated 15 days later, read-out: Post-emergence activity LOLPE (100=total damage to plant; 0=no damage to plant). The method in brief:
as §1

For experiment [12], the system named is Setaria faberi (SETFA). Put plainly: Test Example 1 post-emergence herbicidal activity. The following applies: 360 h, rate 125 g/ha, evaluated 15 days later, read-out: Post-emergence activity SETFA (100=total damage to plant; 0=no damage to plant). The method in brief:
as §1

For `CCc1cc(C)cc(CC)c1C1=C(O)C2[C@@H](C1=O)[C@@H]1C[C@@H](c3ccc(OC)cc3)[C@H]2O1` (stereo partly drawn) [Example T156], the pest or weed control at 250 g/ha in [1] came out at 70%; in the experiment on Avena fatua (AVEFA) [2], 60%; in [3] it was 70%; in [4] it was 70%; in the experiment on Lolium perenne (LOLPE) [5] it was 70%; with Setaria faberi (SETFA) [6] it was 70%. The pest or weed control at 125 g/ha turned out to be 90% in experiment [7]; 80% in the experiment with Avena fatua (AVEFA) [8]; 70% in experiment [9]; 100% in [10]; 70% with Lolium perenne (LOLPE) [11]; 100% with Setaria faberi (SETFA) [12].

On to `CCc1cc(C)cc(CC)c1C1=C(O)[C@@H]2[C@@H]3O[C@@H](C[C@H]3c3ccc([N+](=O)[O-])cc3)[C@@H]2C1=O` [Example T158], for which the pest or weed control at 250 g/ha stood at 60% in experiment [1]; 50% in the experiment with Avena fatua (AVEFA) [2]; 70% in experiment [3]; 50% in experiment [4]; 70% with Lolium perenne (LOLPE) [5]; 70% in the experiment with Setaria faberi (SETFA) [6]. For the same molecule, the pest or weed control at 125 g/ha amounted to 90% in [7]; 90% in the experiment on Avena fatua (AVEFA) [8]; 100% in experiment [9]; 100% in [10]; 80% in the experiment on Lolium perenne (LOLPE) [11]; 100% in the experiment on Setaria faberi (SETFA) [12].

In the case of `CCc1cc(C)cc(CC)c1C1=C(O)[C@@H]2[C@@H]3O[C@@H](C[C@H]3c3ccc(C#N)cc3)[C@@H]2C1=O` [Example T160], the pest or weed control at 250 g/ha in experiment [1] is 30%; in the experiment with Avena fatua (AVEFA) [2] it was 50%; in experiment [3] it was 40%; in [4], 40%; with Lolium perenne (LOLPE) [5], 40%; in the experiment on Setaria faberi (SETFA) [6], 70%. The pest or weed control at 125 g/ha stood at 90% in [7]; 90% in the experiment on Avena fatua (AVEFA) [8]; 100% in experiment [9]; 100% in experiment [10]; 70% in the experiment with Lolium perenne (LOLPE) [11]; 100% in the experiment with Setaria faberi (SETFA) [12].

As to `CCc1cc(C)cc(CC)c1C1=C(O)[C@@H]2[C@@H]3O[C@@H](C[C@H]3c3ccc(SC)cc3)[C@@H]2C1=O` [Example T162], the pest or weed control at 250 g/ha came to 70% in experiment [1]; 70% in the experiment on Avena fatua (AVEFA) [2]; 40% in experiment [3]; 80% in [4]; 90% in the experiment on Lolium perenne (LOLPE) [5]; 10% with Setaria faberi (SETFA) [6]. In addition, the pest or weed control at 125 g/ha turned out to be 90% in [7]; 90% in the experiment on Avena fatua (AVEFA) [8]; 100% in [9]; 100% in experiment [10]; 70% with Lolium perenne (LOLPE) [11]; 100% in the experiment on Setaria faberi (SETFA) [12].

Consider `CCc1cc(C)cc(CC)c1C1=C(O)[C@@H]2[C@@H]3O[C@@H](C[C@H]3c3ccc(F)cc3F)[C@@H]2C1=O` [Example T163], for which the pest or weed control at 250 g/ha stood at 70% in experiment [1]; 60% in the experiment with Avena fatua (AVEFA) [2]; 90% in experiment [3]; 80% in experiment [4]; 90% in the experiment with Lolium perenne (LOLPE) [5]; 90% in the experiment with Setaria faberi (SETFA) [6]. For the same molecule, the pest or weed control at 125 g/ha is 80% in experiment [7]; 80% with Avena fatua (AVEFA) [8]; 70% in experiment [9]; 100% in [10]; 80% in the experiment with Lolium perenne (LOLPE) [11]; 90% in the experiment on Setaria faberi (SETFA) [12].

Consider `CCc1cc(C)cc(CC)c1C1=C(O)[C@@H]2[C@@H]3O[C@@H](C[C@H]3c3ccc([N+](=O)[O-])cc3Cl)[C@@H]2C1=O` [Example T167], for which the pest or weed control at 250 g/ha worked out at 30% in [1]; 40% in the experiment with Avena fatua (AVEFA) [2]; 30% in experiment [3]; 50% in experiment [4]; 40% with Lolium perenne (LOLPE) [5]; 0% in the experiment with Setaria faberi (SETFA) [6]. The pest or weed control at 125 g/ha amounted to 80% in [7]; 50% in the experiment on Avena fatua (AVEFA) [8]; 70% in experiment [9]; 100% in [10]; 50% in the experiment on Lolium perenne (LOLPE) [11]; 70% in the experiment with Setaria faberi (SETFA) [12].

For `CCc1cc(C)cc(CC)c1C1=C(O)[C@@H]2[C@@H]3O[C@@H](C[C@H]3c3cc(C(F)(F)F)ccc3Cl)[C@@H]2C1=O` [Example T169], the pest or weed control at 250 g/ha in [1] was 20%; in the experiment on Avena fatua (AVEFA) [2] it was 30%; in experiment [3], 0%; in experiment [4], 0%; in the experiment with Lolium perenne (LOLPE) [5], 40%; with Setaria faberi (SETFA) [6], 0%. In addition, the pest or weed control at 125 g/ha amounted to 90% in experiment [7]; 10% in the experiment on Avena fatua (AVEFA) [8]; 40% in experiment [9]; 80% in experiment [10]; 30% in the experiment on Lolium perenne (LOLPE) [11]; 60% in the experiment on Setaria faberi (SETFA) [12].

In the case of `CCc1cc(C)cc(CC)c1C1=C(O)[C@@H]2[C@@H]3O[C@@H](C[C@H]3c3ccc(C(C)=O)cc3)[C@@H]2C1=O` [Example T171], the pest or weed control at 250 g/ha in experiment [1] was determined as 30%; in the experiment with Avena fatua (AVEFA) [2], 0%; in experiment [3] it was 40%; in experiment [4] it was 70%; in the experiment on Lolium perenne (LOLPE) [5] it was 10%; in the experiment with Setaria faberi (SETFA) [6], 70%. For the same molecule, the pest or weed control at 125 g/ha in [7] amounted to 70%; in the experiment on Avena fatua (AVEFA) [8], 60%; in experiment [9] it was 80%; in [10] it was 100%; in the experiment with Lolium perenne (LOLPE) [11], 20%; in the experiment with Setaria faberi (SETFA) [12] it was 90%.

As to `CCc1cc(C)cc(CC)c1C1=C(O)[C@@H]2[C@@H]3O[C@@H](C[C@H]3c3cc(F)cc(F)c3)[C@@H]2C1=O` [Example T173], the pest or weed control at 250 g/ha is 90% in experiment [1]; 70% in the experiment on Avena fatua (AVEFA) [2]; 70% in [3]; 70% in experiment [4]; 100% in the experiment with Lolium perenne (LOLPE) [5]; 60% in the experiment on Setaria faberi (SETFA) [6]. Besides, the pest or weed control at 125 g/ha in experiment [7] worked out at 100%; with Avena fatua (AVEFA) [8], 90%; in [9] it was 70%; in experiment [10] it was 100%; in the experiment with Lolium perenne (LOLPE) [11], 90%; in the experiment with Setaria faberi (SETFA) [12] it was 90%.

Take `CCc1cc(C)cc(CC)c1C1=C(O)[C@@H]2[C@@H]3O[C@@H](C[C@H]3c3ccccc3[N+](=O)[O-])[C@@H]2C1=O` [Example T177]: the pest or weed control at 250 g/ha was 60% in experiment [1]; 50% in the experiment on Avena fatua (AVEFA) [2]; 10% in [3]; 70% in experiment [4]; 70% in the experiment on Lolium perenne (LOLPE) [5]; 50% with Setaria faberi (SETFA) [6]. Also, the pest or weed control at 125 g/ha in experiment [7] came out at 80%; in the experiment with Avena fatua (AVEFA) [8], 70%; in experiment [9] it was 30%; in experiment [10] it was 80%; with Lolium perenne (LOLPE) [11], 30%; in the experiment with Setaria faberi (SETFA) [12] it was 20%.
